Like-named read-outs stand apart in the source and are kept apart here.
How the values were obtained:
51Cr-labelled EL4 cells = experiment: Assay of lymphocyte mediated cytolysis (LMC) in vitro; format: cell-based; conditions: for % lysis Reduction: in presence of ADA inhibitor EHNA 7.9 µM
Description: The test compounds were assayed in vitro by the method described in Science, (N.Y.), 187, 957 (1975). The order of addition of reagents was (1) cytotoxic lymphocytes; (2) tests compound dissolved in pyrogen-free saline; (3) ^51Cr-labelled EL4 cells. In those experiments where an adenosine deaminase (ADA) inhibitor was required erthro-9-(2-hydroxy-3-nonyl)adenine (EHNA) was added before step (2) to give a final concentration of 7.9 µM.

[1] = tested on: chromium-labelled heterologous (sheep) erthrocytes target cells coated with mouse anti-sheep erythrocyte serum; experiment: Antibody-Dependent Cellular Cytotoxicity assay in vitro; format: cell-based
Description: The title compound was tested in vitro in Antibody-Dependent Cellular Cytotoxicity assay [Perlmann, P. and Holm, G., Adv. Immunol., 11, 117, (1969)]. Mouse spleen cells from non-immunized animals served as the source of effector cells, assayed with chromium-labelled heterologous (sheep) erthrocytes target cells coated with mouse anti-sheep erythrocyte serum. The final concentration of the anti-serum in the incubation mixture was 1:66, the ratio of effector to target cells 25:1.

[2] = Carrageenan Pleurisy Assay (CPA), acute anti-inflammatory activity; format: in vivo; conditions: po, read-out: ED50, dose required to reduce the 3 hour exudate volume by 50%
Description: Following the procedure described by Vinegar et al., in Proc. Soc. […] There were 5 animals in each drug-treated group and the control group.

[3] = tested on: lipoxgenase or cyclooxygenase pathway; experiment: Inhibition of prostaglandin metabolism in vitro; format: biochemical
[4] = Antipyretic and analgesic activity; conditions: in vivo
[5] = Duration of action and half life; conditions: in vivo
Solubility in water = format: physicochemical
[6] = Toxicity in animal models: liver damage, therapeutic index
[7] = Mus musculus, EL4, read-out: % lysis Reduction

Nc1nc(Cl)nc2c1ncn2[C@@H]1O[C@H](CO)[C@@H](O)[C@H]1O [2-Chloro-adenosine]
inhibition at 4.7 µM (51Cr-labelled EL4 cells; [7]): 62.2% | inhibition at 9.4 µM (51Cr-labelled EL4 cells; [7]): 64.4%

Nc1nc(F)nc2c1ncn2[C@@H]1O[C@H](CO)[C@@H](O)[C@H]1O [2-Fluoro-adenosine]
inhibition at 1 µM (51Cr-labelled EL4 cells; [7]): 48.9% | inhibition at 2 µM (51Cr-labelled EL4 cells; [7]): 60%

Nc1nccc2c1ncn2[C@H]1C[C@H](O)[C@@H](CO)O1 [4-amino-1-(2-deoxy-β-D-ribofuranosyl)-1H-imidazo-[4,5-c]-pyridine]
inhibition at 18.8 µM (51Cr-labelled EL4 cells; Mus musculus, EL4, Conc. 18.8 µM, read-out: % lysis Reduction): 53% | inhibition at 37.5 µM (51Cr-labelled EL4 cells; Mus musculus, EL4, Conc. 37.5 µM, read-out: % lysis Reduction): 73% | inhibition of lymphocyte mediated cytolysis (51Cr-labelled EL4 cells; summary statement): potent inhibitor | inhibition at 100 µM ([1]; 100 µM, 4 hours of incubation at 37 °C, effector to target cells 25:1, read-out: inhibition of target cell-specific chromium release): 83.2% | inhibition at 3.1 µM ([1]; 4 h): 31.2% | inhibition at 6.2 µM ([1]; 4 h): 42.1% | inhibition at 12.5 µM ([1]; 4 h): 55.9% | inhibition at 25 µM ([1]; 4 h, Dose 25.0 μM): 60.2% | IC50 ([1]; dose-response study): 6.2 to 12.5 µM | ED50 ([2]; 3 hr. vol. p.o., mg/kg of body weight): 12 mg/kg | inhibition of prostaglandin metabolism [3]: does not inhibit | analgesic activity per se [4]: no analgesic activity | antipyretic activity [4]: not antipyretic | duration of action [5]: about 15 hours | half life [5]: short | solubility in water (Solubility in water): highly soluble in water | liver damage ([6]; in the animal models used): does not cause liver damage | therapeutic index ([6]; in vivo): high

Nc1nccc2c1ncn2[C@@H]1O[C@H](CO)[C@@H](O)[C@H]1O [(4-amino-1-β-D-ribofur-anosyl-1H-imidazo-[4,5-c]-pyridine, reference compound]
inhibition at 3.1 µM ([1]; 4 h): 52.3% | inhibition at 6.2 µM ([1]; 4 h): 64.8% | inhibition at 12.5 µM ([1]; 4 h): 66.4%

Nc1ncnc2c1ncn2[C@@H]1O[C@H](CO)[C@@H](O)[C@H]1O [Adenosine]
% lysis Reduction (51Cr-labelled EL4 cells; Conc. 9.4 µM): 59% | % lysis Reduction (51Cr-labelled EL4 cells; Conc. 18.8 µM): 59%

CC(=O)Oc1ccccc1C(=O)O [Aspirin]
ED50 ([2]; 3 h): 28 ± 3.2 mg/kg

C[C@]12CCC(=O)C=C1CC[C@@H]1[C@@H]2[C@@H](O)C[C@@]2(C)[C@H]1CC[C@]2(O)C(=O)CO [Hydrocortisone]
ED50 ([2]; 3 h): 14 ± 10.2 mg/kg

C[C@]12C=CC(=O)C=C1CC[C@@H]1[C@@H]2[C@@H](O)C[C@@]2(C)[C@H]1CC[C@]2(O)C(=O)CO [Prednisolone]
ED50 ([2]; 3 h): 3 ± 0.5 mg/kg

— patent EP0038569A2, “Deazapurine nucleosides, formulations and preparation thereof” (THE WELLCOME FOUNDATION LIMITED, priority 1980, dated 1981)
